Laboratory results reported in patent US20230113037A1 (Bayer Aktiengesellschaft, priority 2019, published 2023).
Read-outs that look alike come from different tables or passages of the source.

Key:
AHR [1] = biological target: T1, AHR (Mus musculus, UniProt P30561); experiment: In vitro assay 3: antagonism in mouse cell line (AHR transactivation, firefly luciferase reporter, kynurenic acid prestimulated); type: cell-based
T1 sequence (P30561 1-848 P471L/N533S/M589L): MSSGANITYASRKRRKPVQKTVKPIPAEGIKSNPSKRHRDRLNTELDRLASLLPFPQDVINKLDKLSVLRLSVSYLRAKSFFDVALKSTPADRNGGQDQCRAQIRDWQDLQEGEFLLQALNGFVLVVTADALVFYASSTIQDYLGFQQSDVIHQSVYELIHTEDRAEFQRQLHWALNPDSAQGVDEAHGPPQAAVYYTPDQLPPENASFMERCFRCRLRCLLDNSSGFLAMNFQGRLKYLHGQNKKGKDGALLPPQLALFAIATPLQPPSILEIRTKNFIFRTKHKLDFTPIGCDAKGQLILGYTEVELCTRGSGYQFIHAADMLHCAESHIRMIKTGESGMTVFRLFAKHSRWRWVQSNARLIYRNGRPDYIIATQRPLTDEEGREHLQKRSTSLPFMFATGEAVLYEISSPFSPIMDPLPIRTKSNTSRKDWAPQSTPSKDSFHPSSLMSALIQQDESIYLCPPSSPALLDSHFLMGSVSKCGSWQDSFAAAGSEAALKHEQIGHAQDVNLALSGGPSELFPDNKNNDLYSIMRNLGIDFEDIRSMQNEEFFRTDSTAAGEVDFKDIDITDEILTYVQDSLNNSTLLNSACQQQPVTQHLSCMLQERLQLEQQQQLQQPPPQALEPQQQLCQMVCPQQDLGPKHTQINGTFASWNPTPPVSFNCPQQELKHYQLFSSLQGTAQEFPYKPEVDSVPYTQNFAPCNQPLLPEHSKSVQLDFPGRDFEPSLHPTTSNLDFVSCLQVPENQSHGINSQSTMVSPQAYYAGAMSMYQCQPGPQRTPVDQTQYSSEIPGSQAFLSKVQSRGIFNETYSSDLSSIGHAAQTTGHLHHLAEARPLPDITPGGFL
Procedure, shortened: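 Luminescence from an AHR-dependent DRE-luciferase reporter, stably integrated in mouse cells, quantifies blockade of kynurenic acid-driven activation. Unstimulated cells mark maximal inhibition; normalization uses both control types, and multiply tested compounds carry mean or median values.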

AHR [2] = biological target: T2, AHR (Homo sapiens, UniProt P35869); experiment: In vitro assay 1: antagonism in human cell line (AHR transactivation, firefly luciferase reporter, kynurenic acid prestimulated); type: cell-based; details: AHR Antagonism Human IC50 [M], firefly luciferase reporter
T2 construct: U87 MG glioblastoma cells (ATCC #HTB-14) endogenously expressing AHR; endogenous in cells; host or cells: U87 MG glioblastoma cells (ATCC #HTB-14)
T2 sequence (P35869 11-848): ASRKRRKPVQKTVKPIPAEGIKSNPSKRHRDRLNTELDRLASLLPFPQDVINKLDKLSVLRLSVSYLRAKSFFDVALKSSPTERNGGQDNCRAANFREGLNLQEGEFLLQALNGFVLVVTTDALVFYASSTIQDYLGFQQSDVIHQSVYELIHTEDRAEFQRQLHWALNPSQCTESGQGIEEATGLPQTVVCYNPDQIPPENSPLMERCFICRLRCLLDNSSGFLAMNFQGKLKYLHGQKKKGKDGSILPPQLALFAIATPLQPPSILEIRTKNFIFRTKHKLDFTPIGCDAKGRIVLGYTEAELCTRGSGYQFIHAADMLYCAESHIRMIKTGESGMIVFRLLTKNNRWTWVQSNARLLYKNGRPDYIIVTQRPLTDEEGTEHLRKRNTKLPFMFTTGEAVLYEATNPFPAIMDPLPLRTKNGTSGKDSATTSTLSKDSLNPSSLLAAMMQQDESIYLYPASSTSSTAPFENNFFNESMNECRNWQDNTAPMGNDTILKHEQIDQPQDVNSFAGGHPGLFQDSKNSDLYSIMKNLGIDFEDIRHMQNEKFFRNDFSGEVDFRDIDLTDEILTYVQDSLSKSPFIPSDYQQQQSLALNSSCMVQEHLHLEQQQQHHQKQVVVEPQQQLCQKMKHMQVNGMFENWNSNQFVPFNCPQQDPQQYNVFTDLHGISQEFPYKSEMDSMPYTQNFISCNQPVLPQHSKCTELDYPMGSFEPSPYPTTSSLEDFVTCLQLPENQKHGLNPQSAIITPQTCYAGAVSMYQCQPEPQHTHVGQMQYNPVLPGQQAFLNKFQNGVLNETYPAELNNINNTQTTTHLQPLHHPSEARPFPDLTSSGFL
Procedure, shortened: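 Antagonism is measured against kynurenic acid prestimulation in U87 MG glioblastoma cells carrying stable DRE-luciferase and Renilla reporters. Positive inhibition control: 150 μM kynurenic acid with 5 μM staurosporine. Values are normalized to controls; repeats are averaged or given as medians.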

[3] = Hepa 1c1c7 cells, 200 μM kynurenic acid, 20 hours, firefly luciferase reporter, read-out: AHR Antagonism Mouse IC50

IC50 (AHR [2]) [M]	IC50 (AHR [1]; [3]) [nM]	SMILES	IC50 (AHR [1]; read-out: AHR Antagonism Mouse IC50, Hepa 1c1c7 cells, 200 μM kynurenic acid, 20 hours, firefly luciferase reporter) [nM]
7.73e-08	341	O=C1NCCNC[C@H]1Nc1nc2c(C3CC3)cccc2c2nc(-c3cnn(CC4CC4)c3)nn12 [Example 954, (6R)-6-({7-cyclopropyl-2-[1-(cyclopropylmethyl)-1H-pyrazol-4-yl][1,2,4]triazolo[1,5-c]quinazolin-5-yl}amino)-1,4-diazepan-5-one]	
5.57e-08	452	CC(C)n1cc(-c2nc3c4cccc(C5CC5)c4nc(N[C@@H]4CNCCNC4=O)n3n2)cn1 [Example 955, (6R)-6-({7-cyclopropyl-2-[1-(propan-2-yl)-1H-pyrazol-4-yl][1,2,4]triazolo[1,5-c]quinazolin-5-yl}amino)-1,4-diazepan-5-one]	
5.77e-09	8.5	CC(C)n1cc(-c2nc3c4cccc(Cl)c4nc(N[C@@H]4CNCCNC4=O)n3n2)cn1 [Example 956, (6R)-6-({7-chloro-2-[1-(propan-2-yl)-1H-pyrazol-4-yl][1,2,4]triazolo[1,5-c]quinazolin-5-yl}amino)-1,4-diazepan-5-one]	
1.22e-08	16.8	CCn1cc(-c2nc3c4cccc(Cl)c4nc(N[C@@H]4CNCCNC4=O)n3n2)cn1 [Example 957, (6R)-6-{[7-chloro-2-(1-ethyl-1H-pyrazol-4-yl)[1,2,4]triazolo[1,5-c]quinazolin-5-yl]amino}-1,4-diazepan-5-one]	
1.9e-09	2.84	CCn1cc(-c2nc3c4cccc(Cl)c4nc(N[C@@H]4CNCCNC4=O)n3n2)c(C)n1 [Example 958, (6R)-6-{[7-chloro-2-(1-ethyl-3-methyl-1H-pyrazol-4-yl)[1,2,4]triazolo[1,5-c]quinazolin-5-yl]amino}-1,4-diazepan-5-one]	
5.36e-08	368	COc1ccc(-c2nc3c4cccc(C5CC5)c4nc(N[C@H]4CNCCNC4=O)n3n2)cc1 [Example 959, (6S)-6-{[7-cyclopropyl-2-(4-methoxyphenyl)[1,2,4]triazolo[1,5-c]quinazolin-5-yl]amino}-1,4-diazepan-5-one]	
4.02e-08	93	CC(C)n1cc(-c2nc3c4cccc(C(F)(F)F)c4nc(N[C@H]4CNCCNC4=O)n3n2)cn1 [Example 960, (6S)-6-({2-[1-(propan-2-yl)-1H-pyrazol-4-yl]-7-(trifluoromethyl)[1,2,4]triazolo[1,5-c]quinazolin-5-yl}amino)-1,4-diazepan-5-one]	
7.95e-07	272	CCn1cc(-c2nc3c4cccc(F)c4nc(N[C@@H]4CNCCNC4=O)n3n2)cn1 [Example 961, (6R)-6-{[2-(1-ethyl-1H-pyrazol-4-yl)-7-fluoro-[1,2,4]triazolo[1,5-c]quinazolin-5-yl]amino}1-4,-diazepan-5-one]	
4.37e-09	10.9	Cc1nn(C)cc1-c1nc2c3cccc(Br)c3nc(N[C@@H]3CNCCNC3=O)n2n1 [Example 962, (6R)-6-{[7-bromo-2-(1,3-dimethyl-1H-pyrazol-4-yl)[1,2,4]triazolo[1,5-c]quinazolin-5-yl]amino}-1,4-diazepan-5-one]	
1.76e-09	4.79	O=C1NCCNC[C@H]1Nc1nc2c(C(F)(F)F)cccc2c2nc(-c3cnn(C4CC4)c3)nn12 [Example 963, (6R)-6-{[2-(1-cyclopropyl-1H-pyrazol-4-yl)-7-(trifluoromethyl)[1,2,4]triazolo[1,5-c]quinazolin-5-yl]amino}-1,4-diazepan-5-one]	
9.02e-09	9.29	O=C1NCCNC[C@H]1Nc1nc2c(Cl)cccc2c2nc(-c3cnn(C4CC4)c3)nn12 [Example 966, (6R)-6-{[7-chloro-2-(1-cyclopropyl-1H-pyrazol-4-yl)[1,2,4]triazolo[1,5-c]quinazolin-5-yl]amino}-1,4-diazepan-5-one]	
6.97e-09	7.46	O=C1NCCNC[C@H]1Nc1nc2c(Br)cccc2c2nc(-c3cnn(CC4CC4)c3)nn12 [Example 968, (6R)-6-({7-bromo-2-[1-(cyclopropylmethyl)-1H-pyrazol-4-yl][1,2,4]triazolo[1,5-c]quinazolin-5-yl}amino)-1,4-diazepan-5-one]	
6.3e-07	298	Cc1c(-c2nc3c4cccc(F)c4nc(N[C@@H]4CNCCNC4=O)n3n2)cnn1C [Example 969, (6R)-6-{[2-(1,5-dimethyl-1H-pyrazol-4-yl)-7-fluoro[1,2,4]triazolo[1,5-c]quinazolin-5-yl]amino}-1,4-diazepan-5-one]	
7.72e-07	286	CC(C)n1cc(-c2nc3c4cccc(F)c4nc(N[C@@H]4CNCCNC4=O)n3n2)cn1 [Example 971, (6R)-6-({7-fluoro-2-[1-(propan-2-yl)-1H-pyrazol-4-yl][1,2,4]triazolo[1,5-c]quinazolin-5-yl}amino)-1,4-diazepan-5-one]	
3.09e-08	7.12	COc1ccc(-c2nc3c4cccc(Br)c4nc(N[C@H]4CNCCNC4=O)n3n2)cc1 [Example 972, (6S)-6-{[7-bromo-2-(4-methoxyphenyl)[1,2,4]triazolo[1,5-c]quinazolin-5-yl]amino}-1,4-diazepan-5-one]	
8.12e-10	1.86	CCn1cc(-c2nc3c4cccc(Br)c4nc(N[C@@H]4CNCCNC4=O)n3n2)c(C)n1 [Example 974]	
8.67e-10	4.24	Cc1nn(C)cc1-c1nc2c3cccc(C(F)(F)F)c3nc(N[C@@H]3CNCCNC3=O)n2n1 [Example 975, (6R)-6-{[2-(1,3-dimethyl-1H-pyrazol-4-yl)-7-(trifluoromethyl)[1,2,4]triazolo[1,5-c]quinazolin-5-yl]amino}-1,4-diazepan-5-one]	
3.11e-06	4640	O=C1NCCNC[C@H]1Nc1nc2c(Br)cccc2c2nc(-c3cn[nH]c3)nn12 [Example 976, (6R)-6-{[7-bromo-2-(1H-pyrazol-4-yl)[1,2,4]triazolo[1,5-c]quinazolin-5-yl]amino}-1,4-diazepan-5-one]	
2.03e-09	1.34	O=C1NCCNC[C@H]1Nc1nc2c(Br)cccc2c2nc(-c3cnn(C(F)F)c3)nn12 [Example 978, (6R)-6-({7-bromo-2-[1-(difluoromethyl)-1H-pyrazol-4-yl][1,2,4]triazolo[1,5-c]quinazolin-5-yl}amino)-1,4-diazepan-5-one]	
2.13e-08	10.5	Cc1c(-c2nc3c4cccc(Br)c4nc(N[C@@H]4CNCCNC4=O)n3n2)cnn1C [Example 979, (6R)-6-{[7-bromo-2-(1,5-dimethyl-1H-pyrazol-4-yl)[1,2,4]triazolo[1,5-c]quinazolin-5-yl]amino}-1,4-diazepan-5-one]	

SMILES	IC50 (AHR [2]) [M]	IC50 (AHR [1]; [3]) [nM]	IC50 (AHR [1]; read-out: AHR Antagonism Mouse IC50, Hepa 1c1c7 cells, 200 μM kynurenic acid, 20 hours, firefly luciferase reporter) [nM]
O=C1NCCNC[C@@H]1Nc1nc2c(Br)cccc2c2nc(-c3cnn(C4CC4)c3)nn12 [Example 953, (6S)-6-{[7-bromo-2-(1-cyclopropyl-1H-pyrazol-4-yl)[1,2,4]triazolo[1,5-c]quinazolin-5-yl]amino}-1,4-diazepan-5-one]	2.14e-08		14.9
